Patent publication EP0167553B1, “NEW THERAPEUTICAL APPLICATION OF AN INDANE DIONE DERIVATIVE AND PHARMACEUTICAL COMPOSITIONS INTENDED TO SAID UTILIZATION” (priority 1983, dated 1985)
Values joined by “and” are separate entries in the source; they are usually repeats but may differ in a detail not shown here. Equal entries are not always repeated. Where two headings read alike, the source gives them in different places.

What was measured:
Rats: Wistar femelles [1] = experiment: Atherogenic diet (modified Aubert technique): biochemical examinations and atherogenic risk; assay type: in vivo, Rat Wistar; set-up: score général Biochimie / Risque athérogène Score Total: scale not given here; details: for Cholesterol LDL Cholesterol HDL Score / Cholesterol T/ Cholesterol HDL Score: atherogenic risk ratio; for score général Biochimie: sum of the individual biochemical scores
From the text: (§1) La technique utilisée est celle, légèrement modifiée, de AUBERT D., FERAUD J.C., LACAZE B., PEPINO., PANAK E. et PODESTA M. "Athérogénèse expérimentale chez le Rat Wistar". ATHEROSCLEROSIS 2Q (1974) 263 - 280.
(§2) • - Rats: Wistar femelles, E.O.P.S. en provenance de l'élevage EVIC-CEBA. • - Poids corporel: 160 180 g au départ de l'étude • - Alimentation: UAR A03, enrichi en cholestérol (0,5 %) et en Acide chloique (0,5 %). • - Eau de boisson: eau de ville. • - 15 animaux par lot et par cage MAKROLON SAFI® de 59 x 38,5 cm sur litière de copeaux de bois blanc dépoussiérés. • - Cages placées dans un module animalerie climatisé (20°C * 1°C), à l'humidité constante (50 % ± 10 %). Durée d'éclairement: 12 heures par jour (7 h à 19 h). • - Administration des produits: Après 15 jours de régime athéromateux, on leur administre par voie orale pendant 4 jours 250 000 Ul/kg de vitamine D2 (Stérogyl 15 H) en solution dans l'huile d'olive. On administre ensuite les produits à étudier pendant 4 semaines dès la fin de l'administration de l'agent lésionnel.
L'étude porte sur 5 Lots de 15 rats (tableau N° IV)
En fin d'étude, on pratique sur tous les animaux survivants les examens suivants: • - Cholestérol total, • - Cholestérol estérifié, • - Cholestérol HDL • - Cholestérol LDL (évaluation), • - Lipides totaux, • - Triglycérides.

Rats: Wistar femelles [2] = experiment: Atherogenic diet (modified Aubert technique): macroscopic examination of the aorta; assay type: in vivo, Rat Wistar; details: for Intensité des lésions Cotation: scale Stade 0 to Stade 5
From the text: as §1, §2
En fin d'étude, tous les animaux sont sacrifiés par ponction subtotale du sang à l'aorte abdominale après anesthésie au pentobarbital sodique. On prélève le coeur, le foie et l'aorte sur laquelle on effectue la cotation du pouvoir athérogène. Pour ce faire, les aortes sont coupées longitudinalement puis étalées pour permettre une vue d'ensemble du revêtement endothélial depuis les valvules aortiques jusqu'à la bifurcation du tronc coeliaque (segment inférieur de l'aorte thoracique).
L'aorte est séparée en 2 zones: • - Zone 1: Valvules aortiques - premières artères intercostales • - Zone 2: premières artères intercostales - bifurcation du tronc coeliaque.
L'intensité des dépôts athéromateux est évaluée selon les critères suivants: • - Stade 0: Absence de dépôts • - Stade 1: Dépôts discrets ([…]) peu nombreux • - Stade 2: Dépôts discrets nombreux • - Stade 3: Dépôts importants (> 1 mm) nombreux • - Stade 4: Dépôts très importants ou très nombreux mais laissant quelques zones non infiltrées. • - Stade 5: Dépôts sur tout l'endothélium.
Deux paramètres sont à prendre en considération: • 1. Le nombre d'animaux présentant des lésions macroscopiques, dont le pourcentage d'animaux atteints. • 2. L'intensité des lésions observées cotées selon les indications fournies précédemment.

[3] = Earlier anti-inflammatory test; assay type: in vivo; details: dose de 250 mg/kg
[4] = Acute toxicity, single administration, digestive (oral) route; assay type: in vivo; details: mouse, in vivo, po
From the text: (§3) Souris SWISS mâles et femelles de 22 à 25g de poids corporel. Animaux EOPS. (exempte d'organisme pathogène spécifique), en provenance de l'élevage CERJ., 53680 LE GENEST et acclimatés au moins 8 jours à l'animalerie du laboratoire.
(§4) Sauf mention contraire précisée dans les tableaux de résultats, 10 animaux par dose, sexe et cage en MAKROLON SAFI@ de 40/25 cm. Litière de copeaux de bois blanc. Alimentation standard pour rats et souris UAR et eau ordinaire à volonté.
(§5) Ils sont administrés sans jeûne préalable: • - par voie digestive (intubation gastrique par sonde oesophagienne métallique) à raison de 0,5 ml ou 1 ml pour 20 g de poids corporel d'une suspension aqueuse à 3p.100 en gomme arabique du dérivé testé. • - par voie intrapéritonéale à raison de 0,5 ml ou 1 ml pour 20 g d'une suspension du dérivé testé dans le soluté isotonique de chlorure de sodium à 3p.100 en gomme arabique.
(§6) Pendant 6 heures après l'administration unique, puis tous les jours pendant 15 jours.
(§7) S'il y a lieu, les doses létales cinquante (DL50) sont calculées selon les méthodes de: • - Behrens et Karber (B.K.) • - Miller et Tainter (M.T.), cette dernière méthode permettant d'attribuer, pour le seuil de probabilité de P = 0,05 un intervalle de confiance aux DL 50.
(§8) En outre, sont déterminées les DLO et DL100. • - DLO = DMT: Dose Maxima toujours tolérée • - DL100 = DmM: Dose minima toujours Mortelle.

Souris SWISS = experiment: as above; assay type: in vivo; details: for létalité, symptomatologie toxique: 10.000 mg/kg VO, single dose, 10 souris mâles et femelles
From the text: as §3, §4, §5, §6, §7, §8

[5] = 100 mg/kg, 4 weeks, score relative to Clofibrate (Base 1)
[6] = compared with Clofibrate at the same dose

| SMILES | Cholesterol LDL Cholesterol HDL Score/Clofibrate (Rats: Wistar femelles [1]; 100 mg/kg) | Cholesterol T/ Cholesterol HDL Score/Clofibrate (Rats: Wistar femelles [1]; 100 mg/kg) | Risque athérogène Score Total (Rats: Wistar femelles [1]; 100 mg/kg) | Cholesterol E Score (Rats: Wistar femelles [1]; [5]) | Cholesterol LDL Score (Rats: Wistar femelles [1]; [5]) | Cholesterol T Score (Rats: Wistar femelles [1]; [5]) | Lipides totaux Score (Rats: Wistar femelles [1]; [5]) | Triglycerides Score (Rats: Wistar femelles [1]; [5]) | Cholesterol LDL Cholesterol HDL Score (Rats: Wistar femelles [1]; 100 mg/kg) | Cholesterol T/ Cholesterol HDL Score (Rats: Wistar femelles [1]; 100 mg/kg) | score général Biochimie (Rats: Wistar femelles [1]; 100 mg/kg) | Intensité des lésions Cotation (Rats: Wistar femelles [2]; 100 mg/kg) | further results |
| --- | --- | --- | --- | --- | --- | --- | --- | --- | --- | --- | --- | --- | --- |
| COc1ccc(C(=O)CC2(O)C(=O)c3ccccc3C2=O)cc1OC [Produit de l'invention, 2-[(3,4-dimethoxybenzoyl)methyl] 2-hydroxy 1,3-dioxo indane] | 0.46 | 0.44 | 0.90 | 1.05 | 1.04 | 1.14 | 1.37 | 1.07 | 15.63 | 17.81 | 5.6 and 5.67 | 2.08 | activité sur les paramètres biochimiques (Rats: Wistar femelles [1]; [6]): aussi actif que le Clofibrate; activité anti-lipémiante (Rats: Wistar femelles [1]; dès la dose de 100 mg/kg): nette activité anti-lipémiante; Animaux Atteints Score Clofibrate (Rats: Wistar femelles [2]; 100 mg/kg): 1.69; Intensité des lésions Score Clofibrate (Rats: Wistar femelles [2]; 100 mg/kg): 0.88; Observations Macroscopiques Score Total (Rats: Wistar femelles [2]; 100 mg/kg): 2.57; Animaux Atteints % (Rats: Wistar femelles [2]; 100 mg/kg, animals with macroscopic lesions): 69.23%; activité sur l'évalution des lésions macroscopiques (Rats: Wistar femelles [2]; [6]): plus actif; effet anti-inflammatoire [3]: effet liminaire anti-inflammatoire; LD50 at 360 h ([4]; VO, souris mâles et femelles, read-out: DL50): > 10000 mg/kg; létalité, symptomatologie toxique (Souris SWISS): ni létalité, ni symptomatologie toxique; létalité, symptomatologie toxique (Souris SWISS; listed as dérivé): n'est pas toxique; DLO (Souris SWISS; VO, souris mâles et femelles): ≥ 10.000 mg/kg; DL100 (Souris SWISS; mouse, in vivo, 21600 min): > 10000 mg/kg |
| CCOC(=O)C(C)(C)Oc1ccc(Cl)cc1 [Clofibrate] | 1.00 | 1.00 | 2 | 1.00 | 1.00 | 1.00 | 1.00 | 1.00 | 5.35 | 6.69 | 6 | 2.00 | Cholesterol HDL Score (Rats: Wistar femelles [1]; [5]): 1.00; LD50 at 360 h ([4]; DL50): 2500 ± 235 mg/kg; DL50 (Souris SWISS; mouse, in vivo, po, 360 h): 2650 ± 190 mg/kg |
